Reference: patent publication US10287267B2, “Isoquinolin-3-yl carboxamides and preparation and use thereof” (Samumed, LLC, priority 2016, dated 2019)
Read-outs that look alike come from different tables or passages of the source.

Assays:
[1] = test system: α-smooth muscle actin (αSMA) positive LL29 cells; assay: Inhibition of fibrotic process: αSMA in TGF-β1 treated primary human fibroblasts from IPF patients; format: cell-based; conditions: Homo sapiens, Fibroblast, 96 h; Table 8; LL29 fibroblasts from IPF patients, TGF-β1 20 ng/mL, 4 days; dose-response 10 μM to 0.94 nM;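 further: controls were TGF-β1 stimulated wells with DMSO vehicle (positive) and cells given DMSO alone (negative), cultured in F12 medium with 1% fetal bovine serum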
[2] = molecular target: recombinant DYRK1A kinase (Homo sapiens (Human), UniProt Q13627); assay: DYRK1A kinase assay (Ser/Thr 18 peptide Z-lyte FRET); format: biochemical; conditions: 30 μM ATP, 1 h room temperature;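 further: Read-out is the coumarin to fluorescein emission ratio, referenced to unphosphorylated (0%) and phosphorylated (100%) Ser/Thr 18 peptide controls, values from dose-response curves by non-linear regression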
[3] = test system: Wnt pathway (Sp5-Luc reporter, TCF/LEF binding sites) in SW480 colon carcinoma cells; assay: Screening assay for Wnt activity: Sp5-Luc reporter gene assay; format: cell-based, human; conditions: Sp5-Luc reporter, SW480 cells, 36 to 48 hours;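 further: firefly luciferase luminescence read in stably transduced SW480 cells carrying the Sp5 promoter reporter with eight TCF/LEF sites, compounds given in 0.1% DMSO final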
Method: The screening assay for Wnt activity is described as follows.
Following incubation, 15 μl of BriteLite Plus luminescence reagent (Perkin Elmer) was added to each well of the 384-well assay plates. The plates were placed on an orbital shaker for 2 min and then luminescence was quantified using the Envision (Perkin Elmer) plate reader.

[4] = test system: SW480 colon carcinoma cells; assay: Cell viability assay (CellTiter-Glo); format: cell-based, human; conditions: SW480 cells, CellTiter-Glo, four days incubation
[5] = test system: Tau phosphorylation at Ser396 (pSer396); assay: Tau phosphorylation assay (pSer396 ELISA / western blot) in SH-SY5Y cells; format: cell-based, human; conditions: SH-SY5Y cells, overnight (16-18 h) exposure, read-out: pSer396 Tau EC50;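 further: EC50 for reduction of Tau pSer396 in lysed cells, measured by colorimetric ELISA or chemiluminescent western blot, both using the same pSer396 antibody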
Method: Two days before treatment, cells were seeded onto 96 well plates at 5×10^4 cells/well.
Wells were visually checked for cell death or change in morphology and supernatants were tested for cytotoxicity by measurement of lactate dehydrogenase release (LDH, CytoToxOne kit, Promega) if necessary.
Cells were lysed with RIPA buffer complemented with phosphatase and protease inhibitors then lysates were spun down at 12,000 g for 10 min to remove any cellular debris. Lysates are then either directly tested for pSer396 by ELISA (Life Technology, Kit KHB7031) or loaded on NuPage Bis-Tris gels for western blot analysis. Colorimetric detection of ELISA signal is performed by Cytation3 plate reader (Biotek) and the chemiluminescence signal for HRP-linked antibodies used in western blotting is detected using a Carestream Image Station. The same pSer396 antibody is used for detection of pTau in both assays.

[6] = test system: secreted β-amyloid 40 (Aβ40) peptide; assay: Secreted β-amyloid 40 (Aβ40) peptide in APP overexpressing SH-SY5Y-APP cells; format: cell-based; conditions: Homo sapiens, overnight (16-18 hours)
Method: Representative compounds were screened using the cell-based assay procedure for secreted β-amyloid 40 (Aβ40) peptide in an APP overexpressing cell line described below.
SH-SY5Y cells were infected with lentivirus to overexpress amyloid (A4) beta precursor protein (APP), hereafter referred to as the SH-SY5Y-APP cells.
SH-SY5Y cells were seeded onto 6-well plates at
The cell assay procedure start 18 h prior to treatment, as SH-SY5Y-APP cells were seeded onto 96-well plates at
At this time, designated wells were seeded with SH-SY5Y cells that were seeded and treated with puromycin at
Cells were exposed overnight (16-18 hours) in a 37° C. incubator before supernatant was harvested. […] The original plates with seeded cells were tested for cytotoxicity by measure of adenosine triphosphate (ATP) release by adding CellTiter-Glo® diluted 1:4 in distilled water (G7573, Promega) and transferring lysed cells to a completely black 96-well plate to be read with the Cytation3. Plates containing supernatant were spun down at 1200 g for 10 minutes to remove any cellular debris. Supernatant was then diluted 1:2 with a diluent from V-PLEX Aβ40 Peptide (6E10) Kit and directly tested for secreted Aβ40 peptide (K150SKE, Meso Scale Discovery).

recombinant GSK3β kinase = recombinant GSK3β kinase (Homo sapiens (Human), UniProt P49841); assay: GSK3β kinase assay (Ser/Thr 09 peptide Z-lyte FRET); format: biochemical; conditions: 46 μM ATP, 1 h room temperature;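 further: kinase activity read as coumarin to fluorescein emission ratio, 11-point threefold dilutions from 10 µM to 0.0003 µM in duplicate, unphosphorylated and phosphorylated peptide as 0% and 100% controls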
IL-6 [7] = assay: Secreted cytokines in lipopolysaccharide-stimulated BV-2 mouse microglial cells: IL-6; format: cell-based; conditions: BV-2 cells, compounds overnight, LPS 250 ng/mL 5 h
Method: (§1) Representative compounds were screened using the cell-based assay procedure for secreted cytokines in a Lipopolysaccharide-stimulated mouse glial cell line described below.
(§2) BV-2 cells (mouse microglial cells) were cultured in 1:1 DMEM medium supplemented with 10% FBS, and 1% penicillin/streptomycin.
(§3) BV-2 cells are plated at 35,000 cells/well in a volume of 100 ul for at least 4 hours before compounds are added. DMSO-resuspended compounds were first dispensed in a 96 well plate and serial diluted from 10 μM to 4.6 nM final concentration in medium. Compounds were added to cells overnight. Two hundred fifty ng per milliliter of lipopolysaccharide (Escherichia coli O55:B5, SIGMA) was added for 5 h. Supernatant is removed and saved for further cytokine detection. The original plates with seeded cells were tested for cytotoxicity by measure of adenosine triphosphate (ATP) release by adding CellTiter-Glo® diluted 1:4 in distilled water (G7573, Promega) and transferring lysed cells to a completely black 96-well plate to be read with the Cytation3. Supernatant was then diluted 1:2 with a diluent from V-PLEX cytokine Kit and directly tested for the secreted cytokines TNFα, IL-6 and KC-GRO using electrochemiluminescence (Meso Scale Discovery). The standard curve for each cytokine was used to convert the electrochemiluminescent signal into pg of protein per mL.

IL-6 [8] = assay: IL-6 inhibition in LPS-stimulated human peripheral blood mononuclear cells (HTRF); format: cell-based; conditions: Table 9, huPBMCs, LPS 50 ng/mL, 22 hours, dose-response starting from 10 μM;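 further: IL-6 detected by HTRF with an XL665- and Cryptate-labelled anti-IL-6 antibody pair, samples run in duplicate, EC50 obtained from a four-parameter Levenberg-Marquardt curve fit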
Method: After 22 hour incubation, a mixture of anti-IL6 XL665 and anti-IL-6 Cryptate diluted in reconstitution buffer (Catalog #62IL6PEC, Cisbio Inc., Bedford, Mass.) was added to each well. […] All samples were processed in duplicate. […] EC50 was determined using software generated by Dotmatics Limited (Windhill Bishops Stortford Herts, UK) using the Levenberg-Marquardt 4 parameter fitting procedure with finite different gradients.

TNFα = assay: Secreted cytokines in lipopolysaccharide-stimulated BV-2 mouse microglial cells: TNFα; format: cell-based; conditions: BV-2 cells, compounds overnight, LPS 250 ng/mL 5 h
Method: as §1, §2, §3

Chain of recombinant GSK3β kinase (P49841 whole entry): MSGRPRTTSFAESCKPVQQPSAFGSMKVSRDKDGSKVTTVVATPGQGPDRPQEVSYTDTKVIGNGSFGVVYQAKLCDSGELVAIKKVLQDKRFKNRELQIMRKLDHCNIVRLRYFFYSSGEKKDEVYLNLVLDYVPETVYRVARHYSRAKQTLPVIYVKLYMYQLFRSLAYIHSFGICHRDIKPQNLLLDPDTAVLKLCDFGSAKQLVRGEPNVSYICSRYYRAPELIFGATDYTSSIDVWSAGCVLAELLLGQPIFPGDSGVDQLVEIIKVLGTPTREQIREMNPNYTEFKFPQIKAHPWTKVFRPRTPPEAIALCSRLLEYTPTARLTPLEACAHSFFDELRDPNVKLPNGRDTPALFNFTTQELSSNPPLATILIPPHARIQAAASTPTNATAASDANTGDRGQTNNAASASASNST

| Compound | EC50 [1] [nM] | EC50 [2] [nM] | EC50 ([3]; Homo sapiens) [nM] | EC50 ([4]; Homo sapiens, 96 h) [nM] | EC50 ([5]; Homo sapiens) [nM] | IC50 [6] [nM] | EC50 (recombinant GSK3β kinase) [nM] | EC50 (IL-6 [7]; Mus musculus) [nM] | EC50 (IL-6 [8]; Homo sapiens, PBMC) [nM] | EC50 (TNFα) [nM] | EC50 [3] [nM] | EC50 [4] [nM] | EC50 [5] [nM] | EC50 (IL-6 [7]) [nM] | EC50 (IL-6 [8]) [nM] |
| --- | --- | --- | --- | --- | --- | --- | --- | --- | --- | --- | --- | --- | --- | --- | --- |
| Cn1cc(-c2ccc3cnc(NC(=O)C4CCN(CC(C)(F)F)CC4)cc3c2)cn1 [Compound 83, 1-(2,2-Difluoropropyl)-N-(6-(1-methyl-1H-pyrazol-4-yl)isoquinolin-3-yl) piperidine-4-carboxamide] | 67 | 1.2 | 2900 | 6340 | 432 | > 10000 | 34 | 6 | 2150 |  |  |  |  |  |  |
| CN1CC2(CC(C(=O)Nc3cc4cc(-c5cnn(C)c5)ccc4cn3)C2)C1 [Compound 324, 2-Methyl-N-(6-(1-methyl-1H-pyrazol-4-yl)isoquinolin-3-yl)-2-azaspiro[3.3] heptane-6-carboxamide] | 68 | 2.1 | 145 | 266 | 180 |  | 30 | 20 | 321 | 33 |  |  |  |  |  |
| 1-(2-Hydroxy-2-methylpropyl)-N-(6-(1-methyl-1H-1,2,3-triazol-4-yl) isoquinolin-3-yl)piperidine-4-carboxamide [Compound 1070] |  | 7.6 |  |  |  |  | 16 |  |  |  | 738 | 8390 | 91 | 14 | 6470 |
| Cn1cc(-c2ccc3cnc(NC(=O)C4CCN(CC(C)(C)C)CC4)cc3c2)cn1 [Compound 78, N-(6-(1-Methyl-1H-pyrazol-4-yl)isoquinolin-3-yl)-1-neopentylpiperidine-4-carboxamide] | 108 | 4.7 | 1000 | 1840 | 265 | 889 | 63 |  | 2940 |  |  |  |  |  |  |
| Cn1cc(-c2ccc3cnc(NC(=O)C4CCNCC4)cc3c2)cn1 [Compound 72, N-(6-(1-methyl-1H-pyrazol-4-yl)isoquinolin-3-yl)piperidine-4-carboxamide] | 96 | 2.5 | 920 | 911 | 757 | 2100 | 64 |  | 1130 |  |  |  |  |  |  |
| Cn1cc(-c2ccc3cnc(NC(=O)C4CCN(CCC(F)(F)F)CC4)cc3c2)cn1 [Compound 82, N-(6-(1-Methyl-1H-pyrazol-4-yl)isoquinolin-3-yl)-1-(3,3,3-trifluoropropyl) piperidine-4-carboxamide] | 156 | 0.9 | 4950 | 2710 | 315 | 5100 | 22 |  | 1190 |  |  |  |  |  |  |
| Cn1cc(-c2ccc3cnc(NC(=O)C4CCN(C5CC5)CC4)cc3c2)cn1 [Compound 76, 1-Cyclopropyl-N-(6-(1-methyl-1H-pyrazol-4-yl)isoquinolin-3-yl)piperidine-4-carboxamide] | 87 | 2.3 | 705 | 1560 | 219 | 1200 | 31 |  | 1130 |  |  |  |  |  |  |
| Cn1cncc1-c1ccc2cnc(NC(=O)C3CCC(F)(F)CC3)cc2c1 [Compound 263, 4,4-Difluoro-N-(6-(1-methyl-1H-imidazol-5-yl)isoquinolin-3-yl) cyclohexanecarboxamide] | 134 | 1.3 | 1300 | 1290 | 119 | 5300 | 18 |  | 451 |  |  |  |  |  |  |
| CC(C)CN1CCC(C(=O)Nc2cc3cc(-c4cn(C)nn4)ccc3cn2)CC1 [Compound 468] |  | 4.9 | 363 | 2510 | 39 |  | 7 | 23 | 5780 | 2100 |  |  |  |  |  |
